Like-named read-outs stand apart in the source and are kept apart here. Values belong to the compound of their own block, whether it stands above or below them.
How the values were obtained:
[1] = tested on: Calu-6 cells; experiment: Calu-6 (Kras Q61K) antiproliferative activity experiment (CellTiterGlo); format: cell-based, human; conditions: cultured three days
Experimental: Experimental Embodiment 1: Calu-6 (Kras^Q61K) Antiproliferative Activity Experiment
(1) cell culture medium: 88% RPMI-1640, 10% fetal bovine serum, 1% L-glutamine and 1% penicillin-streptomycin;
(2) culture medium, trypsin and DPBS were preheated in a 37° C. water bath;
(3) the original culture medium was removed in the cell culture flask and washed once with 6 mL of PBS;
(4) 3.5 mL of trypsin was added to the cell culture flask, and the cell culture flask was shaken gently, and the trypsin was removed after full contact with the cell, and then the culture flask was placed into a 37° C. incubator containing 5% CO2 for about 1 minute;
(5) the cells were resuspended with 10 mL of cell culture medium, and about 0.6 mL of cell suspension (ViCell XR) was taken out for counting;
(§1) (6) the cell suspension was diluted with culture medium to a cell density required for plating of 2.5×10^4 cells per mL;
(7) 100 μL of PBS was added to each well around the cell plate, and 40 μL of cell suspension was added to the other wells, and placed in a 37° C. incubator containing 5% CO2 for overnight culture.
(§2) (8) The required cell amount and culture medium were taken based on the new T75 culture flask for continued culture.
(§3) (1) the compound to be tested was prepared into […] solution with DMSO;
(2) 9 μL of the compound was taken and added to Echo shallow well plate (Labcyte, #LP-0200), and the shallow well plate was centrifuged at 1000 rpm for 10 seconds;
(3) DPBS at the periphery of the cell plate was sucked out;
(4) the compound was gradient diluted and administrated with Echo, and 10 concentration gradients of each compound were diluted, and 100 nL of the diluent was added to the 384 cell plate separately, and then the cell plate was put back to the incubator and cultured for three days;
(5) then 100 μL of DPBS was added to the periphery of the cell plate.
(1) CTG was added and the plate was read: 20 μL of CellTiterGlo was added to each well of the cell plate, and the cell plate was shaken in the dark for 10 min. and the plate was read on Envision.

[2] = tested on: ERK phosphorylation in Calu-6 cells; experiment: Calu-6 (Kras Q61K) ERK phosphorylation inhibition experiment (HTRF); format: cell-based, human; conditions: 1 hour incubation with compound
Experimental: Experimental Embodiment 5: Calu-6 (Kras^Q61K) ERK Phosphorylation Inhibition Experiment
1) the cells were resuscitated and cultured to logarithmic growth phase, digested with trypsin, seeded in 96-well plates with 30000 cells per well, and incubated overnight in an incubator.
2) 1 μL of gradient compound dissolved with DMSO was added to a 96-well plate and placed back into an incubator to incubate for 1 hour.
3) The cell plates were removed out, and the culture medium was poured off, and 50 μL of cell lysate (with 1% blocking peptide) was added to each well.
4) The lysate plate was mixed at 500 rpm and incubated and lysed at room temperature for 30 minutes.
5) The antibody mixture in the kit was prepared at a ratio of 1:1:38.
6) 16 μL of cell lysate was transferred to the HTRF plate per well, then the 4 μL of the configured antibody mixture was added thereto.
7) After incubation overnight, the plate was read with Envision, and the fitted curve was obtained according to the ratio (the ratio of fluorescence intensity of […]) and the EC50 was calculated according to the four-parameter fitting formula Y=Bottom+(Top−Bottom)/(1+10^((Log EC50−X)*HillSlope)) of Graphpad.

[3] = Pharmacokinetics of single intravenous and oral administration in mice; format: in vivo; conditions: single oral administration, 50 mg/kg/day; for Cmax: read-out: Maximum plasma drug concentration Cmax; for Tmax: read-out: Peak time Tmax
Experimental: Experimental Embodiment 6: Pharmacokinetics Study of Single Intravenous and Oral Administration in Mice and Dogs
This experiment was aimed to study the pharmacokinetics of the test compound in mice and dogs in vivo after a single oral administration of the compound.
After intravenous or oral administration, blood samples were collected and the actual blood collection time was recorded. After the blood sample was collected, the sample was immediately transferred to a labeled centrifuge tube containing K2-EDTA, and then the plasma was taken after centrifugation. The plasma was transferred to a precooled centrifuge tube, quickly frozen in dry ice, and stored in an ultra-low temperature refrigerator at −70±10° C. until LC-MS/MS analysis.
Pharmacokinetic software was used to process the plasma drug concentration data of the compound with […] model. The peak concentration (Cmax) and peak time (Tmax), as well as the end time of quantification, were obtained directly from the plasma drug concentration-time graph. The following pharmacokinetic parameters were calculated by logarithmic linear trapezoidal method: half-life (T1/2), apparent distribution volume (Vdss) and clearance rate (Cl), and the area under the time-plasma concentration curve from 0 to the end time point (AUC0-last).

[4] = tested on: Colo205 cells; experiment: Colo205 (BRAF V600E) antiproliferative activity experiment (CellTiter-glo); format: cell-based; conditions: Homo sapiens, COLO 205, 72 h, cultured 3 days
Experimental: Experimental Embodiment 4: Colo205 (BRAF^V600E) Antiproliferative Activity Experiment
Cell line COLO205 (purchased from Procell), RPMI1640 culture medium, penicillin/streptomycin antibiotics were purchased from Vicente, and fetal bovine serum was purchased from Biosera. CellTiter-glo (cell viability chemiluminescence detection reagent) reagent was purchased from Promega.
COLO205 cells were seeded in a white 96-well plate with […] of cell suspension per well containing 3000 of COLO205 cells. The cell plate was placed in a carbon dioxide incubator and cultured overnight. The compound to be tested was diluted 3-fold to the 9th concentration with a pipette, that is, diluted from […], and a double-duplicate experiment was set-up. 78 μmol of culture medium was added to the middle plate, then 2 μmol of gradient dilution compound per well was transferred to the middle plate according to the corresponding position, and 20 μmol of per well was mixed and transferred to the cell plate. The concentration of the compound transferred to the cell plate ranged from 1 μmol to 0.15 nmol. The cell plate was placed in a carbon dioxide incubator and cultured for 3 days. Another cell plate was prepared, and the signal value was read as the maximum value (max value in the following equation) on the day of administration to participate in data analysis. 25 μmol of cell viability chemiluminescence detection reagent was added to each well of the cell plate and incubated at room temperature for 10 minutes to stabilize the luminescence signal. A multi-marker analyzer reading was used. After the incubation of the cell plate added with the compound was finished, 25 μmol of cell viability chemiluminescence detection reagent was added to each well of the cell plate and incubated at room temperature for 10 minutes to stabilize the luminescence signal. A multi-marker analyzer reading was used.
(§4) The equation (Sample−Min)/(Max−Min)*100% was used to convert the original data into inhibition rate, and the IC50 value could be obtained by curve fitting with four parameters (obtained by “log (inhibitor) vs. response—variable slope” mode in GraphPad Prism).

[5] = tested on: HCT116 cells; experiment: HCT116 (Kras G13D) antiproliferative activity experiment (CellTiter Glo); format: cell-based; conditions: Homo sapiens, HCT-116, 72 h, cultured 3 days
Experimental: Experimental Embodiment 2: HCT116 (Kras^G13D) Antiproliferative Activity Experiment
(1) cell culture medium: 89% Mc′Coy 5A, 10% fetal bovine serum and 1% penicillin-streptomycin;
(2) culture medium and trypsin were preheated in a 37° C. water bath;
(3) the culture medium was removed in the cell culture flask and washed once with 1 mL of trypsin;
(4) 1 mL of trypsin was added to the cell culture flask, and the cell culture flask was shaken gently, and the trypsin was removed after full contact with the cell, and then the culture flask was placed into a 37° C. incubator containing 5% CO2 for about 1 minute;
(5) the cells were resuspended with 2 mL of cell culture medium, and about 0.01 mL of cell suspension was taken out for counting;
as §1
(7) 100 μL of culture medium was added to each well around the cell plate, and 80 μL of cell suspension was added to the other wells, and placed in a 37° C. incubator containing 5% CO2 for overnight culture.
as §2, §3
(2) 9 concentration gradients and 3-fold dilutions were performed on the compounds, that is, a double-duplicate experiment was set from 6 mmol to 2.7 μmol, and 78 μL of culture medium was added to the middle plate, and then 2 μL of gradient diluted compound per well was transferred to the middle plate according to the corresponding position, and after mixing, 20 μL per well was transferred to the cell plate, and the final concentration of the compound transferred to the cell plate was 30 μmol to 13.7 nmol. The cell plate was placed in a carbon dioxide incubator and cultured for another 3 days.
(1) CTG was added and the plate was read: 20 μL of CellTiter Glo was added to each well of the cell plate, and the cell plate was shaken in the dark for 10 min;
(2) plates were read on Victor Nivo.
The equation (Sample-Min)/(Max-Min)*100% was used to convert the original data into inhibition rate, and the IC50 value could be obtained by curve fitting with four parameters (obtained by “log (inhibitor) vs. response—variable slope” mode in GraphPad Prism).

[6] = tested on: A375 cells; experiment: A375 (BRAF V600E) antiproliferative activity experiment (CellTiter-glo); format: cell-based; conditions: Homo sapiens, A-375, 120 h, cultured 5 days
Experimental: Experimental Embodiment 3: A375 (BRAF^V600E) Antiproliferative Activity Experiment
Cell line A375 (purchased from Procell). DMEM culture medium, penicillin/streptomycin antibiotics were purchased from Vicente, and fetal bovine serum was purchased from Biosera. CellTiter-glo (cell viability chemiluminescence detection reagent) reagent was purchased from Promega.
A375 cells were seeded in a white 96 well plate with […] of cell suspension per well containing 2000 of A375 cells. The cell plate was placed in a carbon dioxide incubator and cultured overnight. The compound to be tested was diluted 3-fold to the 9th concentration with a pipette, that is, diluted from 6 mmol to 0.91 μmol, and a double-duplicate experiment was set-up, 78 μmol of culture medium was added to the middle plate, then 2 μmol of gradient dilution compound per well was transferred to the middle plate according to the corresponding position, and 20 μmol per well was mixed and transferred to the cell plate. The concentration of the compound transferred to the cell plate ranged from 30 μmol to 4.57 nmol. The cell plate was placed in a carbon dioxide incubator and cultured for 5 days. Another cell plate was prepared, and the signal value was read as the maximum value (max value in the following equation) on the day of administration to participate in data analysis, 25 μmol of cell viability chemiluminescence detection reagent was added to each well of the cell plate and incubated at room temperature for 10 minutes to stabilize the luminescence signal. A multi-marker analyzer reading was used. After the incubation of the cell plate added with the compound was finished, 25 μmol of cell viability chemiluminescence detection reagent was added to each well of the cell plate and incubated at room temperature for 10 minutes to stabilize the luminescence signal. A multi-marker analyzer reading was used.
as §4

IC50 [1]: 239 nM | IC50 [2]: 6.36 nM | Peak time Tmax [3]: 1 h | Cmax [3]: 182 µM
SMILES: COc1cc(F)cc([C@@H](CO)NC(=O)[C@@H](C)N2Cc3ccc(-c4nc(NC5CCOCC5)ncc4Cl)cc3S2(=O)=O)c1 [Compound 4]

IC50 ([1]; Homo sapiens, Calu-6, 72 h): 508 nM
SMILES: COc1cc(F)cc([C@@H](C)NC(=O)[C@@H](CO)N2Cc3ccc(-c4nc(NC5CCOCC5)ncc4Cl)cc3S2(=O)=O)c1 [Compound 6]

IC50 ([1]; Homo sapiens, Calu-6, 72 h): 253 nM | IC50 ([2]; Homo sapiens, Calu-6, 1 h): 3.03 nM | Cmax ([3]; mouse, plasma, po): 34.6 µM | Tmax ([3]; mouse, plasma): 1 h
SMILES: COc1cc(F)cc([C@@H](CO)NC(=O)CN2Cc3ccc(-c4nc(NC5CCOCC5)ncc4Cl)cc3S2(=O)=O)c1 [Compound 10]

Second part, the compound before the results:

SMILES: Cc1cccc([C@@H](CO)NC(=O)[C@@H](C)N2Cc3ccc(-c4nc(NC5CCOCC5)ncc4Cl)cc3S2(=O)=O)c1 [Compound 7]
IC50 ([1]; Homo sapiens, Calu-6, 72 h): 210 nM | IC50 ([2]; Homo sapiens, Calu-6, 1 h): 4.39 nM

SMILES: [2H]C1([2H])CC(Nc2ncc(Br)c(-c3ccc4c(c3)S(=O)(=O)N([C@H](C)C(=O)N[C@H](CO)c3cc(F)cc(OC)c3)C4)n2)CC([2H])([2H])O1 [Compound 12]
IC50 [4]: 21 nM | IC50 ([2]; Homo sapiens, Calu-6, 1 h): 6.91 nM | IC50 [5]: 112 nM | IC50 [6]: 16 nM

SMILES: C[C@H](C(=O)N[C@H](CO)c1cccc(N(C)C)n1)N1Cc2ccc(-c3nc(NC4CCOCC4)ncc3Cl)cc2S1(=O)=O [Compound 8]
IC50 ([1]; Homo sapiens, Calu-6, 72 h): 313 nM

SMILES: COc1cc(F)cc([C@@H](CO)NC(=O)[C@@H](C)N2Cc3ccc(-c4nc(N[C@@H]5CCOC[C@H]5F)ncc4Cl)cc3S2(=O)=O)c1 [Compound 2]
IC50 ([1]; Homo sapiens, Calu-6, 72 h): 222 nM | IC50 ([2]; Homo sapiens, Calu-6, 1 h): 13.1 nM

SMILES: C[C@H](C(=O)N[C@H](CO)c1cc(F)cc(Cl)c1)N1Cc2ccc(-c3nc(NC4CCOCC4)ncc3Cl)cc2S1(=O)=O [Compound 5]
IC50 ([1]; Homo sapiens, Calu-6, 72 h): 222 nM | IC50 ([2]; Homo sapiens, Calu-6, 1 h): 6.92 nM | Cmax ([3]; mouse, plasma, po): 90.5 µM | Tmax ([3]; mouse, plasma): 0.75 h

SMILES: COc1cc(F)cc([C@@H](CO)NC(=O)[C@@H](C)N2Cc3ccc(-c4nc(N[C@H]5CCOC[C@H]5F)ncc4Br)cc3S2(=O)=O)c1 [Compound 13]
IC50 [4]: 21 nM | IC50 ([2]; Homo sapiens, Calu-6, 1 h): 7.84 nM | IC50 [5]: 138 nM | IC50 [6]: 17 nM

— patent publication US11718610B2, “Compounds containing benzosultam” (MEDSHINE DISCOVERY INC., priority 2020, dated 2023)
